Consider two molecules from patent publication US20230101046A1, “ANAPLASTIC LYMPHOMA KINASE CHIMERIC ANTIGEN RECEPTORS AND METHODS OF USE” (The Children's Medical Center Corporation, priority 2020, published 2023).

The test system of assay [1] is Eμ-myc/ALK systemic tumors. Briefly: Adoptive transfer in CD19+/ALK+ systemic leukemia model. The assay is classed as in vivo, mice. How it is done: The CD19+/ALK+systemic leukemia model was used to validate and rank cytolytic activity of ALK CARs in vivo. Adoptive transfer of ALK CAR-T cells was conducted in mice with Eμ-myc/ALK systemic tumors. Mice were treated with cytophspamide (CTX, 100 mg/kg) alone (n=8), cytophosphamide plus CAR-CD19 (15×10^6 based on GFP+) (n=8), or cytophosphamide plus CAR-ALK #5 (15×10^6 based on GFP+) (n=8). Untreated mice (n=6) were used as a negative control. FIG. 5A provides a survival curve of these treated mice.
Circulating CD19+/ALK+ tumor cells were found in peripheral blood (FIG. 5B, Left). An ALK+ tumor mass was isolated close to lymph node (FIG. 5B, Right). FACS analysis was also conducted on the 6 out of 8 mice that survived more than two months. No tumor cells were found in peripheral blood of these mice (FIG. 5C).

A further assay relates to Kelly or SH-SY5Y cells. Briefly: Viability / proliferation of neuroblastoma cell lines treated with lorlatinib. In kind it is cell-based, human. To be noted: 100 nM. How it is done: First generation ALK tyrosine kinase inhibitors (TKIs), such as crizotinib, have limited therapeutic efficacy in neuroblastoma, while the third generation ALK TKI, lorlatinib, is effective against mutated neuroblastoma (Infarinato N R, et al., The ALK/ROS1 Inhibitor PF-06463922 Overcomes Primary Resistance to Crizotinib in ALK-Driven Neuroblastoma. Cancer Discov 2016 January; 6(1):96-107). The effects of lorlatinib on ALK viability and expression in neuroblastoma cells was evaluated. Several neuroblastoma cell lines with various ALK genetic alterations, including NB-1 (ALK WT amplified), IMR-32 (ALK WT), NBL-S(ALK WT), SH-SY5Y (mutated ALK^F1174L), Kelly (mutated ALK^F1174L), were treated with increasing doses of lorlatinib (FIG. 10A). Viability was measured at 48 hours.
In white 96-well plates, 3×10^4 cells/mL were grown in triplicates. The treatment with lorlatinib was done after 24 hour. Cell growth was analyzed 5 days after treatment using Cell Titer-GloMax assay (Promega, Fitchburg, Wis., USA), according to the manufacturer's instructions. In 24-well plates, 5×10^4 cells/mL were grown in triplicates. […] Apoptosis was measured 48 hours after treatment by flow cytometry after staining with the FITC Annexin V and propidium iodide (PI) Staining Solution Apoptosis Detection Kit I (BD Pharmingen) according to the manufacturer's instructions.

Take `O=P1(N(CCCl)CCCl)NCCCO1` (stereo not drawn) [cyclophosphamide]: the “tumor cells in peripheral blood by FACS” value in assay [1] (CD19+/ALK+ cells) is given as “CD19+/ALK+ cells were found in one mouse”. The survival of mice result in assay [1] (Eμ-myc/ALK systemic tumors, CTX 100 mg/kg, CAR-T 15×10^6 based on GFP+) is “died within one month”.

For the molecule `C[C@H]1Oc2cc(cnc2N)-c2c(nn(C)c2C#N)CN(C)C(=O)c2ccc(F)cc21` [Lorlatinib, lorlatinib], in the assay on Kelly or SH-SY5Y cells, the reduction of proliferation entry is reported as “less than 50%”.
